Experimental data from article PMC10564737, “Structure-based design of a phosphotyrosine-masked covalent ligand targeting the E3 ligase SOCS2” (Nature Communications, 2023).
Entries after “also recorded” stand apart in the source; their conditions may differ.

Columns and labels:
[1] = biological target: T1, SOCS2 C111S mutant (SBC2 C111S) (Homo sapiens, UniProt O14508, C111S); test: Intact ESI-MS of recombinant protein, covalent modification; assay type: biochemical; settings: for % modified: SOCS2 C111S + MN551 (1:1, 50 µM)
T1 construct: SOCS2 (amino acids 32–198); His6 (N, cleaved yes); made in house; host or cells: E. coli BL21(DE3)
T1 sequence (Q15370 1-104): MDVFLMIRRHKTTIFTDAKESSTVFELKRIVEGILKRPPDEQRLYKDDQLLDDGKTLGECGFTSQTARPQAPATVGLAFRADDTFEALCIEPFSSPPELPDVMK
T1 sequence (Q15369 17-112, further chain): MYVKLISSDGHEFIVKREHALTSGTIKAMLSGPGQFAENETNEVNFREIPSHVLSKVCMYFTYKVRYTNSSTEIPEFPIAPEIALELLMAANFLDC
T1 sequence (O14508 32-198 C111S): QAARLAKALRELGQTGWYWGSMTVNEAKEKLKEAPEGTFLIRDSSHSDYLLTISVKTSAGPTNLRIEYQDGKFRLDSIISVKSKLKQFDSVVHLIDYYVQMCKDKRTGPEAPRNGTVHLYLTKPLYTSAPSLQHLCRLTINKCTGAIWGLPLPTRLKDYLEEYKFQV
Description: […] At defined time points 20 µl samples were removed and the protein precipitated by the addition of 80 µl methanol. The precipitated protein was pelleted by centrifugation, washed with 500 µl methanol, and resuspended in an aqueous solution of 15% acetonitrile and 1% TFA. Samples were separated by HPLC on a C3 column using a 10–75% gradient of acetonitrile and analyzed using an Agilent 6130 quadrupole MS. Spectra were deconvoluted and integrated using Agilent LC/MSD ChemStation.

[2] = biological target: T2, SBC2 (Homo sapiens, UniProt O14508); test: Isothermal titration calorimetry (ITC), direct titration; assay type: binding
T2 construct: SOCS2 (amino acids 32–198); His6 (N, cleaved yes); made in house; host or cells: E. coli BL21(DE3)
T2 sequence (Q15370 1-104 partner limits assumed, one chain of several): as the sequence (Q15370 1-104) above
T2 sequence (Q15369 17-112 partner limits assumed, one chain of several): as the sequence (Q15369 17-112, further chain) above
Description: Experiments were performed with ITC200 instrument (Malvern) in 100 mM HEPES pH 7.5, 50 mM NaCl, 0.5 mM TCEP at 298 K. The ITC titration consisted of 0.4 μl initial injection (discarded during data analysis) followed by 19 of 2 μl injections at 120 s interval between injections. 1 mM of the ligands in 2–4% DMSO were titrated into 100 μM SBC2. […] Binding data was subtracted from a control titration where ligand was titrated into buffer, and fitted using a one-set-of-site binding model to obtain dissociation constant (Kd), binding enthalpy (ΔH), and stoichiometry (N) using MicroCal PEAQ-ITC Analysis Software1.1.0.1262 and MicroCal ITC-ORIGIN Analysis Software 7.0 (Malvern).

[3] = biological target: T3, SOCS2 Cys111 (Homo sapiens, UniProt O14508); test: SOCS2 immunoprecipitation and tandem MS (LC-MS/MS) of Cys111 peptide from treated K562 cells; assay type: cell-based; settings: 6 h
T3 construct: MN551 covalently modifies cellular SOCS2 specifically at Cys111; endogenous in cells; host or cells: K562
T3 sequence (O14508 1-198): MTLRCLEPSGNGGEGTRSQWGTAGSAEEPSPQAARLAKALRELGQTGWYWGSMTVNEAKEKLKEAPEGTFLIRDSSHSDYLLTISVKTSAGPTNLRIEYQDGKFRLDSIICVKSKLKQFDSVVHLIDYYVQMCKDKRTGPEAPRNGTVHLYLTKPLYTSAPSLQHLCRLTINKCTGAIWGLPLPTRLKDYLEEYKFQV
Description: While CETSA and GHR pulldown experiments allow ascertaining the engagement of cellular SOCS2, distinguishing reversible binding from covalent binding remains a challenge. […] Moreover, the MS2 spectra for cells treated with 1 μM and 10 μM MN714 show a dose-dependent increase in levels of SOCS2 modification (Fig. 6e).
Cells were treated with either DMSO, 1 μM, or 10 μM MN714 for 6 h in 10 cm dish. Cells were harvested, washed with PBS, and lysed in […] RIPA buffer (Sigma-R0278: 150 mM NaCl, 1.0% IGEPAL® CA-630, 0.5% sodium deoxycholate, 0.1% SDS, 50 mM Tris, pH 8.0, and freshly added protease inhibitor tablet). Cellular debris was pelleted, the lysate supernatant was aspirated to a new tube and subjected to immunoprecipitation at 4 °C for 4 h with 3 μl anti-SOCS2 antibody coupled to 20 μl of protein A/G beads (abcam- ab109245). The beads were washed 3 times with 1× RIPA buffer and precipitated protein samples were eluted with 1 × NuPAGE™ LDS sample buffer, and 20% of the sample was analyzed by SDS-PAGE and western blot using a rabbit anti-SOCS2 primary antibody (abcam) and IRDye® 800CW donkey anti-rabbit IgG secondary antibody. The remaining precipitated protein samples were processed for mass-spec analysis. In brief, the samples were reduced with DTT alkylated with Iodoacetamide and subjected to the SP3 protein clean-up procedure. […]
LC-MS analysis was performed by the FingerPrints Proteomics Facility (University of Dundee). Analysis of peptide readout was performed on a Q-Exactive™ plus, Mass Spectrometer (Thermo Scientific) coupled to a Dionex Ultimate 3000 RS (Thermo Scientific). […]
MS raw data were analyzed using MaxQuant software, standard settings were used with the following changes and additions: The modified FASTA databases with individual substitutions of cysteines with the placeholder “U” (selenocysteine) were used[67]. […] The relative intensity of peptide […] without and with a modified cysteine (placeholder “U”) were analyzed by normalizing to total intensity of SOCS2 protein.

[4] = system: K562 cells; test: cells; assay type: cell-based
Description: Supplementary Figure 10: GSH kinetic study of compound MN551 in GSH stability assay. A and B.
A plot of unmodified MN551 v/s time. The starting concentrations of MN551 were 1 and 10 µM in A and B respectively. C. Reactivity of MN551 measured against Afatinib and Ibrutinib
Supplementary Figure 11: Cell viability assay to assess cytotoxicity of MN714. (EC50 reported as mean±SEM, technical replicates=3).
(1 picture or pasted object on this page, not shown here)

Row | Compound | covalent reactivity with C111S mutant [1] | % modified ([1]; t = 0 min) [%] | % modified ([1]; t = 5 min) [%] | % modified ([1]; t = 10 min) [%] | % modified ([1]; t = 20 min) [%] | % modified ([1]; t = 40 min) [%] | % modified ([1]; t = 60 min) [%] | % modified ([1]; t = 90 min) [%] | % modified ([1]; t = 120 min) [%] | Ki [2] [µM] | Kd ([2]; ITC KD, direct ITC, 298 K) [µM] | relative intensity of modified peptide LDSIIUVK, normalised to total SOCS2 levels ([3]; 1uM) | relative intensity of unmodified peptide LDSIICVK, normalised to total SOCS2 levels ([3]; 1uM) | relative intensity of unmodified peptide LDSIICVK, normalised to total SOCS2 levels ([3]; 10uM) | EC50 ([4]; Homo sapiens, K562 24hrs, read-out: cell viability EC50) [µM] | concentration up to which no significant cytotoxicity was observed ([4]; K562 cells) [µM]
1 | O=C(CCl)Nc1cccc(CNC(=O)[C@H](Cc2ccc(OP(=O)(O)O)cc2)NC(=O)Cc2ccc(F)cc2)c1 [MN551] | no reactivity; also recorded: does not covalently react | 0.0 | 0.0 | 0.0 | 0.0 | 0.0 | 0.0 | 0.0 | 0.0 | 2.2 | 2.18 ± 0.6 |  |  |  |  | 
2 | CC(C)(C)C(=O)OCOP(=O)(OCOC(=O)C(C)(C)C)Oc1ccc(C[C@H](NC(=O)Cc2ccc(F)cc2)C(=O)NCc2cccc(NC(=O)CCl)c2)cc1 [MN714] |  |  |  |  |  |  |  |  |  |  |  | 24.9386 | 85.6581 | 0 | 11.8 | 3 to 10
